Assay results from US20230312556A1, “ARYLAMIDE COMPOUND, PHARMACEUTICAL COMPOSITION COMPRISING SAME, AND PREPARATION METHOD THEREFOR AND USE THEREOF” (SICHUAN KELUN-BIOTECH BIOPHARMACEUTICAL CO., LTD., priority 2020, published 2023).

biological target: mutant BRAF enzyme (BRAF-V600E) (Homo sapiens (Human), UniProt P15056, V600E); assay: RAF inhibition assay (TB-PMAP2K1 kit), BRAF-V600E; type: biochemical; details: FLUORESCEIN-MAP2K1 substrate, 60 min reaction
Sequence (P15056 whole entry V600E): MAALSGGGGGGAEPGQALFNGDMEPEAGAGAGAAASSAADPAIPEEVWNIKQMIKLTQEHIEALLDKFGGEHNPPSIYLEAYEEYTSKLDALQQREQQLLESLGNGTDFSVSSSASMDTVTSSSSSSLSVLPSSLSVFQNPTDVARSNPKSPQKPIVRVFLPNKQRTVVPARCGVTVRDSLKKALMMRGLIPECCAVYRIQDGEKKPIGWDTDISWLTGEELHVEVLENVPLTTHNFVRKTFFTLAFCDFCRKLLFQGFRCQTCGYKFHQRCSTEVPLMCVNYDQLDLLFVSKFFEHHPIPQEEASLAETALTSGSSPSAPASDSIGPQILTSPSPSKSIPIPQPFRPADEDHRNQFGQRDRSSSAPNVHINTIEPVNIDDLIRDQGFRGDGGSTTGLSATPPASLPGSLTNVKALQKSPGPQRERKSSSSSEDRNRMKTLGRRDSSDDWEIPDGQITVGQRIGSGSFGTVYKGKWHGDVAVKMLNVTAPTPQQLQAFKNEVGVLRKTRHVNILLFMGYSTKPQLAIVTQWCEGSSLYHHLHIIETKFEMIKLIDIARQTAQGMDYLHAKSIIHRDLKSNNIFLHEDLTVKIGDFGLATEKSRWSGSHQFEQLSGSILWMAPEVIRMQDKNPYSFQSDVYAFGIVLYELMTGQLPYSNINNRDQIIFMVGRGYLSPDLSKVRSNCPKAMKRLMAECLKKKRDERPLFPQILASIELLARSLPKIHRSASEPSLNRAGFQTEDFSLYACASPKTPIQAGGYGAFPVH

| SMILES | IC50 [nM] |
| --- | --- |
| Cc1ccc2c(Nc3cccc(Cl)c3F)nccc2c1NC(=O)c1cccc2c(N)nccc12 [Comparative Example 1, 1-amino-N-(1-((3-chloro-2-fluorophenyl)amino)-6-methylisoquinolin-5-yl)isoquinoline-5-carboxamide, reference compound] | > 1000 |
| Cc1ccc2c(Nc3cccc(C(F)(F)F)c3)nccc2c1NC(=O)c1cccc2c(N)nccc12 [Comparative Example 2, 1-amino-N-(6-methyl-1-((3-(trifluoromethyl)phenyl)amino)isoquinolin-5-yl)isoquinoline-5-carboxamide, reference compound] | > 1000 |
| Cc1ccc2c(Cc3ccccc3F)nccc2c1NC(=O)c1csc2c(N)ncnc12 [Compound 2, 4-amino-N-(1-(2-fluorobenzyl)-6-methylisoquinolin-5-yl)thieno[3,2-d]pyrimidine-7-carboxamide] | 35.6 ± 2.4 |
| COc1ccc(Cc2nccc3c(NC(=O)c4csc5c(N)ncnc45)c(C)ccc23)cc1 [Compound 5, 4-amino-N-(1-(4-methoxybenzyl)-6-methylisoquinolin-5-yl)thieno[3,2-d]pyrimidine-7-carboxamide] | 8.9 ± 1.03 |
| COc1ccc(C(O)c2nccc3c(NC(=O)c4csc5c(N)ncnc45)c(C)ccc23)cc1 (centres unmarked) [Compound 6, 4-amino-N-(1-(hydroxy(4-methoxyphenyl)methyl)-6-methylisoquinolin-5-yl)thieno[3,2-d]pyrimidine-7-carboxamide] | 25.2 ± 4.08 |
| Cc1ccc2c(Cc3cccc(Cl)c3F)nccc2c1NC(=O)c1csc2c(N)ncnc12 [Compound 8, 4-amino-N-(1-(3-chloro-2-fluorobenzyl)-6-methylisoquinolin-5-yl)thieno[3,2-d]pyrimidine-7-carboxamide] | 8.63 ± 0.99 |
| Cc1ccc2c(Cc3ccccc3Cl)nccc2c1NC(=O)c1csc2c(N)ncnc12 [Compound 10, 4-amino-N-(1-(2-chlorobenzyl)-6-methylisoquinolin-5-yl)thieno[3,2-d]pyrimidine-7-carboxamide] | 4.73 ± 1.82 |
| Cc1ccc2c(C(=O)c3ccccc3Cl)nccc2c1NC(=O)c1csc2c(N)ncnc12 [Compound 11, 4-amino-N-(1-(2-chlorobenzoyl)-6-methylisoquinolin-5-yl)thieno[3,2-d]pyrimidine-7-carboxamide] | 33.1 ± 7.2 |
| Cc1ccc2c(Nc3cccc(Cl)c3)nccc2c1NC(=O)c1cnc2c(N)ncnn12 [Compound 12, 4-amino-N-(1-((3-chlorophenyl)amino)-6-methylisoquinolin-5-yl)imidazo[2,1-f][1,2,4]triazine-7-carboxamide] | 1.5 ± 0.2 |
| Cc1ccc2c(Cc3ccc(F)cc3)nccc2c1NC(=O)c1csc2c(N)ncnc12 [Compound 13, 4-amino-N-(1-(4-fluorobenzyl)-6-methylisoquinolin-5-yl)thieno[3,2-d]pyrimidine-7-carboxamide] | 32.8 ± 0.6 |
| Cc1ccc2c(C(O)c3ccccc3Cl)nccc2c1NC(=O)c1csc2c(N)ncnc12 (centres unmarked) [Compound 14, 4-amino-N-(1-((2-chlorophenyl)(hydroxy)methyl)-6-methylisoquinolin-5-yl)thieno[3,2-d]pyrimidine-7-carboxamide] | 6.3 ± 0.7 |
| Cc1ccc2c(C(O)c3ccc(F)cc3)nccc2c1NC(=O)c1csc2c(N)ncnc12 (centres unmarked) [Compound 15, 4-amino-N-(1-((4-fluorophenyl)(hydroxy)methyl)-6-methylisoquinolin-5-yl)thieno[3,2-d]pyrimidine-7-carboxamide] | 11.1 ± 1.5 |
| Cc1ccc2c(Cc3cccc(Cl)c3)nccc2c1NC(=O)c1csc2c(N)ncnc12 [Compound 16, 4-amino-N-(1-(3-chlorobenzyl)-6-methylisoquinolin-5-yl)thieno[3,2-d]pyrimidine-7-carboxamide] | 6.27 ± 1.15 |
| Cc1ccc2c(C(O)c3cccc(Cl)c3)nccc2c1NC(=O)c1csc2c(N)ncnc12 (centres unmarked) [Compound 17, 4-amino-N-(1-((3-chlorophenyl)(hydroxy)methyl)-6-methylisoquinolin-5-yl)thieno[3,2-d]pyrimidine-7-carboxamide] | 5.73 ± 1.05 |
| Cc1ccc2c(Cc3ccc(Cl)cc3)nccc2c1NC(=O)c1csc2c(N)ncnc12 [Compound 18, 4-amino-N-(1-(4-chlorobenzyl)-6-methylisoquinolin-5-yl)thieno[3,2-d]pyrimidine-7-carboxamide] | 8.33 ± 1.25 |
| Cc1ccc2c(C(O)c3ccc(Cl)cc3)nccc2c1NC(=O)c1csc2c(N)ncnc12 (centres unmarked) [Compound 20, 4-amino-N-(1-((4-chlorophenyl)(hydroxy)methyl)-6-methylisoquinolin-5-yl)thieno[3,2-d]pyrimidine-7-carboxamide] | 10.7 ± 1.93 |
| Cc1ccc2c(C(=O)c3ccc(Cl)cc3)nccc2c1NC(=O)c1csc2c(N)ncnc12 [Compound 21, 4-amino-N-(1-(4-chlorobenzoyl)-6-methylisoquinolin-5-yl)thieno[3,2-d]pyrimidine-7-carboxamide] | 5.99 ± 1.82 |
| Cc1ccc2c(C(O)c3ccccc3Cl)nccc2c1NC(=O)c1cccc2c(N)ncnc12 (centres unmarked) [Compound 24, 4-amino-N-(1-((2-chlorophenyl)(hydroxy)methyl)-6-methylisoquinolin-5-yl)quinazoline-8-carboxamide] | 7.1 ± 0.7 |

| SMILES | IC50 [nM] |
| --- | --- |
| Cc1ccc2c(Cc3ccccc3Cl)nccc2c1NC(=O)c1cccc2c(N)ncnc12 [Compound 25, 4-amino-N-(1-(2-chlorobenzyl)-6-methylisoquinolin-5-yl)quinazoline-8-carboxamide] | 6.31 ± 0.99 |
| Cc1ccc2c(Cc3ccc(Cl)cc3F)nccc2c1NC(=O)c1csc2c(N)ncnc12 [Compound 26, 4-amino-N-(1-(4-chloro-2-fluorobenzyl)-6-methylisoquinolin-5-yl)thieno[3,2-d]pyrimidine-7-carboxamide] | 9 ± 0.77 |
| Cc1ccc2c(C(=O)c3ccc(Cl)cc3F)nccc2c1NC(=O)c1csc2c(N)ncnc12 [Compound 27, 4-amino-N-(1-(4-chloro-2-fluorobenzoyl)-6-methylisoquinolin-5-yl)thieno[3,2-d]pyrimidine-7-carboxamide] | 6.48 ± 0.93 |
| Cc1ccc2c(Nc3cccc(Cl)c3F)nccc2c1NC(=O)c1cnc2c(N)ncnn12 [Compound 30, 4-amino-N-(1-((3-chloro-2-fluorophenyl)amino)-6-methylisoquinolin-5-yl)imidazo[2,1-f][1,2,4]triazine-7-carboxamide] | 4.1 ± 0.2 |
| Cc1ccc2c(C(O)c3ccc(C(F)(F)F)cc3)nccc2c1NC(=O)c1csc2c(N)ncnc12 (centres unmarked) [Compound 33, 4-amino-N-(1-(hydroxy(4-(trifluoromethyl)phenyl)methyl)-6-methylisoquinolin-5-yl)thieno[3,2-d]pyrimidine-7-carboxamide] | 33.5 ± 6.13 |
| Cc1ccc2c(Cc3ccc(C(F)(F)F)cc3)nccc2c1NC(=O)c1csc2c(N)ncnc12 [Compound 34, 4-amino-N-(6-methyl-1-(4-(trifluoromethyl)benzyl)isoquinolin-5-yl)thieno[3,2-d]pyrimidine-7-carboxamide] | 26.9 ± 2.58 |
| Cc1ccc2c(Cc3ccc(N(C)C)nc3)nccc2c1NC(=O)c1csc2c(N)ncnc12 [Compound 36, 4-amino-N-(1-((6-(dimethylamino)pyridin-3-yl)methyl)-6-methylisoquinolin-5-yl)thieno[3,2-d]pyrimidine-7-carboxamide] | 22.5 ± 4.41 |
| Cc1ccc2c(C(O)c3ccc(N(C)C)nc3)nccc2c1NC(=O)c1csc2c(N)ncnc12 (centres unmarked) [Compound 37, 4-amino-N-(1-((6-(dimethylamino)pyridin-3-yl)(hydroxy)methyl)-6-methylisoquinolin-5-yl)thieno[3,2-d]pyrimidine-7-carboxamide] | 20.4 ± 3.03 |
| Cc1ccc2c(Nc3ccc(CN(C)C)cc3)nccc2c1NC(=O)c1cccc2c(N)ncnc12 [Compound 40, 4-amino-N-(1-((4-((dimethylamino)methyl)phenyl)amino)-6-methylisoquinolin-5-yl)quinazoline-8-carboxamide] | 8.51 ± 1.02 |
| Cc1ccc2c(Cc3ccc(Cl)c(CN(C)C)c3)nccc2c1NC(=O)c1csc2c(N)ncnc12 [Compound 42, 4-amino-N-(1-(4-chloro-3-((dimethylamino)methyl)benzyl)-6-methylisoquinolin-5-yl)thieno[3,2-d]pyrimidine-7-carboxamide] | 35.8 ± 9.02 |
| Cc1ccc2c(Nc3ccccc3F)nccc2c1NC(=O)c1cnc2c(N)ncnn12 [Compound 44, 4-amino-N-(1-((2-fluorophenyl)amino)-6-methylisoquinolin-5-yl)imidazo[2,1-f][1,2,4]triazine-7-carboxamide] | 0.88 ± 0.15 |
| Cc1cc(C(=O)Nc2c(C)ccc3c(Nc4cccc(Cl)c4F)nccc23)c2ncnc(N)c2c1 [Compound 45, 4-amino-N-(1-((3-chloro-2-fluorophenyl)amino)-6-methylisoquinolin-5-yl)-6-methylquinazoline-8-carboxamide] | 18.2 ± 7.52 |
| Cc1ccc2c(Nc3cccc(Cl)c3F)nccc2c1NC(=O)c1cc(N2CCOCC2)cc2c(N)ncnc12 [Compound 53, 4-amino-N-(1-((3-chloro-2-fluorophenyl)amino)-6-methylisoquinolin-5-yl)-6-morpholinoquinazoline-8-carboxamide] | 17.3 ± 3.43 |
| Cc1ccc2c(Nc3cccc(Cl)c3F)nccc2c1NC(=O)c1cc(N2CCN(C)CC2)cc2c(N)ncnc12 [Compound 54, 4-amino-N-(1-((3-chloro-2-fluorophenyl)amino)-6-methylisoquinolin-5-yl)-6-(4-methylpiperazin-1-yl)quinazoline-8-carboxamide] | 11 ± 2.02 |
| Cc1ccc2c(Nc3ccc(Cl)cc3F)nccc2c1NC(=O)c1cnc2c(N)ncnn12 [Compound 55, 4-amino-N-(1-((4-chloro-2-fluorophenyl)amino)-6-methylisoquinolin-5-yl)imidazo[2,1-f][1,2,4]triazine-7-carboxamide] | 2.86 ± 0.24 |
| COc1ccc(Nc2nccc3c(NC(=O)c4cnc5c(N)ncnn45)c(C)ccc23)cc1Cl [Compound 56, 4-amino-N-(1-((3-chloro-4-methoxyphenyl)amino)-6-methylisoquinolin-5-yl)imidazo[2,1-f][1,2,4]triazine-7-carboxamide] | 3.16 ± 0.67 |
| COc1ccc(Nc2nccc3c(NC(=O)c4cccc5c(N)ncnc45)c(C)ccc23)cc1 [Compound 57, 4-amino-N-(1-((4-methoxyphenyl)amino)-6-methylisoquinolin-5-yl)quinazoline-8-carboxamide] | 2.89 ± 0.34 |
